Measured values taken from publication PMC6895912 (Cancers, 2019).
“Also recorded” adds a separate entry of the source.

Legend:
CWR22Rv1 xenografts = assay: Antitumor efficacy in castration-resistant CWR22Rv1 xenograft model; type: in vivo, male NOD SCID mice; conditions: 25 mg/kg PO once daily, 16 days; listed as ENZ
Description: Following the in vitro studies and determination of the PK parameters, we then investigated the relative efficacy. Gal and the NGGAs in vivo using difficult-to-treat castration-resistant CWR22Rv1 xenografts. Given the enhanced IP and PO PK parameters of VNPP414 and VNPP433-3β over Gal, we decided to use lower doses of the new analogs compared to the previous Gal doses (200 mg/kg, IP/PO). Gal (200 mg/kg) served as positive control, while ENZ (25 mg/kg) administered PO was used as negative control. Male NOD SCID mice bearing CWR22Rv1 tumors were treated with vehicle, ENZ, Gal, VNPP414, and VNPP433-3β for 16 days as described in the Methods and Materials Section. […] In contrast, Gal and the NGGAs caused statistically significant tumor growth inhibition (TGI). […] It is notable that VNPP433-3β (at 7.5- and 15-fold lower molar doses) and VNPP414 (at 4-fold lower molar dose) are more efficacious than Gal. In general, no host toxicities were observed, as monitored by changes in animal body weight (Figure 7C).
Figure 7 Effects of Gal, NGGAs and ENZ in an in vivo castration-resistant prostate cancer model. (A) Mice bearing CWR22Rv1 xenografts (5 mice per group) were treated with vehicle, Gal (100 mg/kg/twice daily), VNPP414 (60 mg/kg, once daily), VNPP433-3β (15 or 30 mg/kg, once daily) and ENZ (25 mg.kg, once daily) 5 days per week for 16 days. Tumor volumes were measured twice a week and the tumors were collected. Tumor growth inhibition (TGI) values are indicated at the right of each growth curve, and the error bars are the SEM. Results are represented as means ± SEM. ^# p = ns (not significant vs. vehicle), ^$ p < 0.0272 vs. vehicle, * p < 0.0035 vs. vehicle, ** p < 0.0025 vs. vehicle and *** p < 0.0008 vs. vehicle. (B) Photographed tumors from each group. (C) Mean body weights of mice determined during the study. (D) Western blot analyses of tumor samples from each experimental group at day 16. […] It is left out because vehicle is a control, not a substance.
Male NOD SCID mice 5–6 weeks of age were obtained from University of Maryland School of Medicine Veterinary Resources (Baltimore, MD, USA. Mice were housed under complete aseptic conditions, fed autoclaved pellets and sterile water ad libitum. Following a week of acclimatization, approximately 5 × 10^6 CWR22Rv1 cells were inoculated one flank f mice. Tumor-bearing mice (tumor volume around ~100 mm^3) were randomized into 6 groups (5 mice in each group; compounds formulated in vehicle) and treated as follows: (i) vehicle control (40% β-cyclodextrin in saline, PO.), (ii) ENZ (25 mg/kg, PO, once daily), (iii) Gal (100mg/kg, PO, twice daily), (iv) VNPP414 (60 mg/kg, PO, once daily), (v) VNPP433-3β (15 mg/kg, PO, once daily), and (vi) VNPP433-3β (30 mg/kg, PO, once daily) for 5 days/week. Tumors were measured twice weekly with calipers and tumor volume was calculated by the formula: length × width^2 × 0.5 (mm^3). Animals were also weighed weekly and monitored for general health status and signs of possible toxicity due to treatments. Mice were sacrificed after the indicated periods of treatment and tumors excised. Tumors were divided and either flash frozen in liquid nitrogen or placed in 10% buffered formalin for western blot analysis.

[1] = test system: CWR-R1, CWR-R1 (10E), CWR-R1-MTX20nM cells; assay: Colony formation (clonogenicity) assay; type: cell-based, human; conditions: parental CWR-R1 and drug-resistant counterparts, 14 days
Text: (A) Comparative GI50 values of Gal, NGGAs, and enzalutamide (ENZ) in drug-naïve-/-resistant prostate cancer cells. (B) Gal and NGGAs induce G1 cell cycle arrest in LNCaP cells. (C) VNPP414 and VNPP433-3β deplete the cell cycle regulator, cyclin D1, and upregulate p21; “+” indicates specific treatments. (D) Gal cause dose-dependent depletion of cyclin D1. (E) Unlike ENZ, Gal and VNPP433-3β inhibit colony formation of drug-naïve/-resistant cells in vitro. 1000 cells/well (CWR-R1, CWR-R1 (10E), CWR-R1-MTX20nM), seeded in 6-well plates were treated with indicated concentrations of compounds for a period of 14 days. Media containing compounds were replaced every 3 days. Colonies were stained with 0.05% crystal violet. (F) Quantification of colony formation units (CFU) in drug-naive/resistant cells. Colony assays were repeated three times and colonies counted in four quadrants of the wells. Results are represented as averages with S.E.M. (* p < 0.05, ** p < 0.001). Note: the numbers in parentheses in Figure 2B,C,E are concentrations of the agents in µM.
0.1 × 10^3 cells per well were seeded in 6-well plates and allowed to attach overnight (16 h), cells were treated with compounds in regular media (RPMI with 10% FBS) at the indicated concentrations and replaced every 3rd day for 14 days or until visible colonies could be counted. Colonies were washed and stained with 0.05% crystal violet for 30 min. Colonies were scanned and quantified (colonies counted in four quadrants of each well) with ImageJ colony counter. Results are represented as the mean of triplicates.

Q: What does the source list for `CNC(=O)c1ccc(N2C(=S)N(c3ccc(C#N)c(C(F)(F)F)c3)C(=O)C2(C)C)cc1F` [Enzalutamide, reference compound]?
A: tumor volume versus vehicle-treated control (in words) (CWR22Rv1 xenografts): ineffective; also recorded: no statistically significant difference; inhibition of colony formation [1]: ineffective at the concentrations tested
